# According to publication PMC7187334 (Clinical Pharmacology in Drug Development, 2019):
# Where two headings read alike, the source gives them in different places.
# B1: evolocumab: proprotein convertase subtilisin/kexin type 9-neutralizing antibody (antibody, chains of the INN, looked up, V domains shown)
# VH: EVQLVQSGAEVKKPGASVKVSCKASGYTLTSYGISWVRQAPGQGLEWMGWVSFYNGNTNYAQKLQGRGTMTTDPSTSTAYMELRSLRSDDTAVYYCARGYGMDVWGQGTTVTVSS
# VL: ESALTQPASVSGSPGQSITISCTGTSSDVGGYNSVSWYQQHPGKAPKLMIYEVSNRPSGVSNRFSGSKSGNTASLTISGLQAEDEADYYCNSYTSTSMVFGGGTKLTVL
# Tests used:
# [1] = set-up: method as in PMID 15116058; details: coadministered with gemfibrozil; cited from earlier work
# healthy volunteers = test: Phase 1 crossover study: safety and tolerability (adverse events); type: in vivo, human; details: rosuvastatin 10 mg, fasted, n = 12
# Protocol: Each participant received 5 single‐dose oral study treatments (A‐E), with a minimum washout period of 7 days between each treatment period.
# The safety set included all participants who received treatment in the study and for whom any postdose safety data were available. Safety was assessed throughout the study by monitoring adverse events, vital signs (systolic and diastolic blood pressure, pulse rate, and body temperature), and electrocardiographic parameters and by conducting physical examinations and laboratory assessments (hematology, blood chemistry, and urinalysis).
# [2] = Phase 1 crossover study: rosuvastatin plasma pharmacokinetics; type: in vivo, human; details: for AUC(0-inf) / half-life / AUC(0-t) / Cmax: human, plasma, oral, 10 mg
# Protocol: The primary objective was to evaluate the pharmacokinetics of oral rosuvastatin when administered alone and in combination with oral AZD5718. […] Each participant received 5 single-dose oral study treatments (A-E), with a minimum washout period of 7 days between each treatment period. Participants were randomly assigned to treatments in the order A, B, C, D, E or B, A, C, D, E. Treatments were: […] […] Participants fasted for at least 10 hours before treatment and for at least 4 hours after treatment. Participants receiving treatment E consumed a high-fat breakfast 30 minutes before treatment. Water was permitted as desired except within 1 hour of administration. […] Doses were taken with 240 mL of water. […] At a minimum, each analytical run included a calibration curve, a matrix blank, a control zero sample (matrix blank containing internal standard), a reagent blank, and duplicate quality control samples at 3 concentrations within the calibration range. […] Both assessments were well within the acceptance criteria. […] The pharmacokinetic analysis set for rosuvastatin included all participants who received both rosuvastatin treatments. […] Statistical analyses were performed by […] using SAS version 9.4. Rosuvastatin pharmacokinetics were analyzed using a mixed-effects model, with log-transformed AUC, AUC0-last, and Cmax as the response variables; treatment sequence, period, and treatment as fixed effects; and participant nested within treatment sequence as a random effect. […] LS mean differences and 90%CIs for the effect of formulation or food for log-transformed variables were back transformed to geometric mean ratios and presented as percentages with 90% CIs.
# [3] = system: patients with acute coronary syndrome; set-up: method as in PMID 20190281; details: cited from earlier work
# [4] = system: patients with coronary artery disease; set-up: method as in earlier work; details: cited from earlier work
# [5] = system: patients receiving statins; set-up: method as in PMID 28845751; details: cited from earlier work
# [6] = system: patients with coronary artery disease; set-up: method as in PMID 28834471; details: cited from earlier work
molecule,measurement,setting,value
"CC(C)c1nc(N(C)S(C)(=O)=O)nc(-c2ccc(F)cc2)c1/C=C/[C@@H](O)C[C@@H](O)CC(=O)O [Rosuvastatin, rosuvastatin]",Increase in rosuvastatin AUC,[1],2 fold
same,Increase in rosuvastatin Cmax,[1],2 fold
same,Participants with influenza-like illness,healthy volunteers,0 n (%)
same,"Rosuvastatin AUC0-inf (relative bioavailability), ratio of geometric LS means","[2]; coadministered with AZD5718 200 mg vs alone, 90% CI 86%-116%",100%
same,"Rosuvastatin AUC0-last, ratio of geometric LS means","[2]; coadministered with AZD5718 200 mg vs alone, 90% CI 87%-106%",96%
same,"Rosuvastatin Cmax, ratio of geometric LS means","[2]; coadministered with AZD5718 200 mg vs alone, 90% CI 107%-146%",125%
same,Increase in rosuvastatin Cmax,[2]; coadministration with AZD5718 tablets vs alone,about 25%
same,AUC(0-inf),"[2]; rosuvastatin 10 mg alone, fasted, n = 9, read-out: Rosuvastatin AUC0-inf, arithmetic mean (SD)",45.3 ng·h/mL
same,AUC(0-inf),"[2]; rosuvastatin 10 mg alone, fasted, n = 9, read-out: Rosuvastatin AUC0-inf, geometric mean (%CV)",41 ng·h/mL
same,half-life,"[2]; rosuvastatin 10 mg alone, fasted, n = 9, read-out: Rosuvastatin t1/2 lambda z, arithmetic mean (SD) (converted)",16 h
same,half-life,"[2]; rosuvastatin 10 mg alone, fasted, n = 9, read-out: Rosuvastatin t1/2 lambda z, geometric mean (%CV) (converted)",14.7 h
same,AUC(0-t),"[2]; rosuvastatin 10 mg alone, fasted, n = 12, read-out: Rosuvastatin AUC0-last, arithmetic mean (SD)",54.2 ng·h/mL
same,AUC(0-t),"[2]; rosuvastatin 10 mg alone, fasted, n = 12, read-out: Rosuvastatin AUC0-last, geometric mean (%CV)",45.3 ng·h/mL
same,Cmax,"[2]; rosuvastatin 10 mg alone, fasted, n = 12, read-out: Rosuvastatin Cmax, arithmetic mean (SD)",5.56 ng/mL
same,Cmax,"[2]; rosuvastatin 10 mg alone, fasted, n = 12, read-out: Rosuvastatin Cmax, geometric mean (%CV)",4.59 ng/mL
same,AUC(0-inf),"[2]; rosuvastatin 10 mg plus AZD5718 200-mg tablet, fasted, n = 10, read-out: Rosuvastatin AUC0-inf, arithmetic mean (SD)",56.9 ng·h/mL
same,AUC(0-inf),"[2]; rosuvastatin 10 mg plus AZD5718 200-mg tablet, fasted, n = 10, read-out: Rosuvastatin AUC0-inf, geometric mean (%CV)",50.5 ng·h/mL
same,half-life,"[2]; rosuvastatin 10 mg plus AZD5718 200-mg tablet, fasted, n = 10, read-out: Rosuvastatin t1/2 lambda z, arithmetic mean (SD) (converted)",16.4 h
same,half-life,"[2]; rosuvastatin 10 mg plus AZD5718 200-mg tablet, fasted, n = 10, read-out: Rosuvastatin t1/2 lambda z, geometric mean (%CV) (converted)",16.5 h
same,AUC(0-t),"[2]; rosuvastatin 10 mg plus AZD5718 200-mg tablet, fasted, read-out: Rosuvastatin AUC0-last, arithmetic mean (SD)",49.4 ng·h/mL
same,AUC(0-t),"[2]; rosuvastatin 10 mg plus AZD5718 200-mg tablet, fasted, read-out: Rosuvastatin AUC0-last, geometric mean (%CV)",43.5 ng·h/mL
same,Cmax,"[2]; rosuvastatin 10 mg plus AZD5718 200-mg tablet, fasted, read-out: Rosuvastatin Cmax, arithmetic mean (SD)",6.74 ng/mL
same,Cmax,"[2]; rosuvastatin 10 mg plus AZD5718 200-mg tablet, fasted, read-out: Rosuvastatin Cmax, geometric mean (%CV)",5.74 ng/mL
same,"Rosuvastatin tmax, median (range)","[2]; rosuvastatin 10 mg alone, fasted, n = 12",5.00 (0.50‐6.00) h
C[C@H](C#Cc1ccc(Cc2ccc(F)cc2)s1)N(O)C(N)=O [VIA‐2291],Left ventricular ejection fraction,[3]; dose-dependent,improved left ventricular ejection fraction
same,Appearance of new coronary lesions,[3]; phase 2,prevented the appearance of new coronary lesions
same,Leukotriene B4 production,[3]; phase 2,reduced leukotriene B4 production
same,Noncalcified plaque volume,[3]; phase 2,lowered noncalcified plaque volume
CC(c1cc2ccccc2s1)N(O)C(N)=O (centres unmarked) [zileuton],Flow-mediated dilation in the brachial artery,[4],improved flow‐mediated dilation
same,Leukotriene production,[4],reduced leukotriene production
canakinumab: anti-interleukin-1β antibody,"Hazard ratio, recurrent cardiovascular events vs placebo",[5]; P = .021,0.85
same,Rate of recurrent cardiovascular events,"[5]; canakinumab together with statins, placebo and statins 4.50",3.90 events per 100 person‐years
B1,"Hazard ratio, recurrent cardiovascular events vs placebo",[6]; P < .001,0.85
same,"LDL cholesterol level, median",[6]; evolocumab together with statins,30 mg/dL
same,Rate of recurrent cardiovascular events,"[6]; evolocumab together with statins, placebo 11.3%",9.8%
